Data taken from paper PMC6270878, “Trigocherrierin A, a Potent Inhibitor of Chikungunya Virus Replication” (Molecules, 2014).

Assays:
in vitro = settings: African green monkey
[1] = system: chikungunya virus (CHIKV); test: Chikungunya virus-cell based antiviral assay (inhibition of virus-induced cell death, MTS readout); settings: for EC50: Chikungunya virus, Vero, read-out: EC50 (50% effective concentration, inhibits CHIKV-induced cell death by 50%); for selectivity index (SI), CC50 Vero/EC50 CHIKV: ratio of CC50 to EC50

Structure (SMILES) | CC50 (in vitro) [µM] | EC50 [1] [µM] | selectivity index (SI), CC50 Vero/EC50 CHIKV [1]
CCN(CC)CCCC(C)Nc1ccnc2cc(Cl)ccc12 (centres unmarked) [Chloroquine, chloroquine, reference compound] | 89 ± 28 | 10 ± 5 | 
C=C(C)C12OC3(c4ccccc4)OC1C1C4OC4(CO)C(O)C4(O)C(O)C(C)=CC4C1(O3)C(C)C2OC(=O)C(C)CCCCCCCC (centres unmarked) [Compound 1, Trigocherrierin A] | 43 ± 16 | 0.6 ± 0.1 | 71.7
CC1CCCCCCC(C)C(=O)OC2C(=CCl)C=C3C2(O)C(O)C2(CO)OC2C2C4OC5(c6ccccc6)OC(C(C)C32O5)C4(O)C(O)(CO)C1 (centres unmarked) [Compound 2, Trigocherriolide E] | 6.6 ± 0.6 | 0.7 ± 0.1 | 9.4
